SMILES strings stand for the structures. Structures can show the parent of a compound that is named as a salt.

The target in the test is T1, σ1-receptor (Cavia porcellus, UniProt Q60492).
T1 construct: Guinea pig brains were homogenized in 10 vols; (w/v) of Tris-HCl 50 mM 0.32 M sucrose, pH 7.4; from tissue; host or cells: guinea pig brain membranes
Description: binding assay for the σ1-receptor, [3H]-(+)-pentazocine, brain membranes. Particulars: guinea pig brain membranes; radioligand [3H]-(+)-pentazocine 5.0 nM; 150 min at 37° C.; nonspecific binding with 1 μM haloperidol. As to the method:
Guinea pig brains were homogenized in 10 vols. (w/v) of Tris-HCl 50 mM 0.32 M sucrose, pH 7.4, with a Kinematica Polytron PT 3000 at 15000 r.p.m. for 30 s. The homogenate was centrifuged at 1000 g for 10 min at 4° C. and the supernatants collected and centrifuged again at 48000 g for 15 min at 4° C. The pellet was resuspended in 10 volumes of Tris-HCl buffer (50 mM, pH 7.4), incubated at 37° C. for 30 min, and centrifuged at 48000 g for 20 min at 4° C. Following this, the pellet was re-suspended in fresh Tris-HCl buffer (50 mM, pH 7.4) and stored on ice until use.
The radioligand used was [^3H]-(+)-pentazocine at 5.0 nM and the final volume was 200 μl. The incubation was initiated with the addition of 100 μl of membrane at a final tissue concentration of approximately 5 mg tissue net weight/mL and the incubation time was 150 m. at 37° C. After incubation, the membranes were collected onto pretreated glass fiber filterplate (MultiScreen-FC, Millipore), with polyethylenimine 0.1%. The filters were washed two times with 200 μl of washing buffer (50 mM Tris Cl, pH=7.4) and then 25 μl of Ecoscint H liquid scintillation cocktail were added. […] Nonspecific binding was determined with 1 μM haloperidol.

T1 sequence (Q60492 whole entry): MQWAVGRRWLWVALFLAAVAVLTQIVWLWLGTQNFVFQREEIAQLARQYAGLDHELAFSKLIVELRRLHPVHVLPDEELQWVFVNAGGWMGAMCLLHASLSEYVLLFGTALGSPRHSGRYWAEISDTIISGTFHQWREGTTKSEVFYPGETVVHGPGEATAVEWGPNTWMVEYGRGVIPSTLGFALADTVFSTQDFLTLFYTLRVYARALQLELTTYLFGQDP

Consider `c1cc2c(cc1N1CCOCC1)[C@H]1OCC[C@H]1[C@@H](C1CCCCC1)N2` (racemic) [Example 103, (3aSR*,4RS*,9bSR*)-4-cyclohexyl-8-morpholino-2,3,3a,4,5,9b-hexahydrofuro[3,2-c]quinoline hydrochloride], for which the Ki (usually a measure of affinity in units of concentration, obtained from inhibition or displacement) was 337 nM. `CC(C)CCOc1ccc2c(c1)[C@H]1OCCC[C@H]1[C@@H](C1CCCC1)N2` (racemic) [Example 105, (4aSR*,5RS*,10bSR*)-5-cyclopentyl-9-(isopentyloxy)-3,4,4a,5,6,10b-hexahydro-2H-pyrano[3,2-c]quinoline hydrochloride]: the Ki came out at 124 nM. As for `NCCCOc1ccc2c(c1)[C@H]1OCC[C@H]1[C@@H](C1CCCCC1)N2` (racemic) [Example 106, 3-((3aSR*,4RS*,9bSR*)-4-cyclohexyl-2,3,3a,4,5,9b-hexahydrofuro[3,2-c]quinolin-8-yloxy)propan-1-amine hydrochloride], the affinity, expressed as Ki, was 25.3 nM. As for `COc1ccc2c(c1)[C@H]1OCCC[C@H]1[C@@H](C1CCN(CCc3ccccc3)CC1)N2` (racemic) [Example 108, (4aSR*,5RS*,10bSR*)-9-methoxy-5-(1-phenethylpiperidin-4-yl)-3,4,4a,5,6,10b-hexahydro-2H-pyrano[3,2-c]quinoline hydrochloride], the Ki came out at 279 nM. The compound `COc1ccc2c(c1)[C@H]1OCCC[C@H]1[C@@H](C1CCN(Cc3ccc(Cl)cc3)CC1)N2` (racemic) [Example 109, (4aSR*,5RS*,10bSR*)-5-(1-(4-chlorobenzyl)piperidin-4-yl)-9-methoxy-3,4,4a,5,6,10b-hexahydro-2H-pyrano[3,2-c]quinoline hydrochloride] registered a Ki of 27.2 nM. `CCN1CCC([C@H]2Nc3ccc(OCCC(C)C)cc3[C@H]3OCCC[C@H]32)CC1` (racemic) [Example 110, (4aSR*,5RS*,10bSR*)-5-(1-ethylpiperidin-4-yl)-9-(isopentyloxy)-3,4,4a,5,6,10b-hexahydro-2H-pyrano[3,2-c]quinoline hydrochloride] returned a Ki of 317 nM. Regarding `NCCCCOc1ccc2c(c1)[C@H]1OCCC[C@H]1[C@@H](C1CCCCC1)N2` (racemic) [Example 111, 4-((4aSR*,5RS*,10bSR*)-5-cyclohexyl-3,4,4a,5,6,10b-hexahydro-2H-pyrano[3,2-c]quinolin-9-yloxy)butan-1-amine hydrochloride], affinity was put at a Ki of 242 nM. The compound `NCCCOc1ccc2c(c1)[C@H]1OCCC[C@H]1[C@@H](C1CCCCC1)N2` (racemic) [Example 112, 3-((4aSR*,5RS*,10bSR*)-5-cyclohexyl-3,4,4a,5,6,10b-hexahydro-2H-pyrano[3,2-c]quinolin-9-yloxy)propan-1-amine hydrochloride] gave a Ki of 134 nM. In the case of `CC(C)CCOc1ccc2c(c1)[C@H]1OCCC[C@H]1[C@@H](C1CCOCC1)N2` [Example 114, (4aS,5R,10bS)-9-(isopentyloxy)-5-(tetrahydro-2H-pyran-4-yl)-3,4,4a,5,6,10b-hexahydro-2H-pyrano[3,2-c]quinoline] it was 30 nM.

The values above are taken from patent publication US9408842B2, “Substituted pyrano and furanoquinolines, their preparation and use as medicaments” (LABORATORIOS DEL DR. ESTEVE S.A., priority 2012, dated 2016).
